Assay results as given in patent US20120245193A1, “PER[…] μ OPIOID ANTAGONISTS” (Alkermes, Inc., priority 2011, published 2012).

Key:
Male Swiss-Webster mice = experiment: PGE2 test of gut motility (inhibition of morphine's blockade of PGE2-induced diarrhea); type: in vivo
Method: A rodent model of gut motility model (Russell, et al., 1982; Eur. J. Pharm., 78: 255-61) was used to evaluate the bioavailability and efficacy of Compound-1 in […]. The PGE2 test of gut motility evaluates the inhibition of morphine's side effects. PGE2 (a prostaglandin) induces diarrhea in mice within 15 minutes of an intraperitoneal injection (0.1 mg/kg). Morphine (1 mg/kg, IP) blocks this effect. Peripherally-acting opioid antagonists inhibit morphine's blockade of PGE2-induced diarrhea. Male Swiss-Webster mice (n=10/group) were administered Compound-1 or a reference compound 15 minutes (IP or PO) prior to morphine and placed in a Plexiglas pie cage. PGE2 was administered 30 minutes after morphine. Observations of diarrhea were made 15 minutes after PGE2 administration. Duration of action was tested by adjusting the time between Compound-1 and morphine administration. FIGS. 2 and 3 show the effectiveness of reference compound methylnaltrexone (MNTX) and Compounds 1-4 to inhibit opioid-induced delay in gut motility by oral and IP administration.
(NTX represents naltrexone).

[1] = tested on: patients diagnosed with opioid-induced bowel dysfunction (OBD); experiment: Multicenter, multi-dose study in patients with opioid-induced bowel dysfunction; type: in vivo, human
Method: In this multicenter, multi-dose study, 87 patients diagnosed with opioid-induced bowel dysfunction (OBD) during treatment with opioids for chronic, non-cancer pain were randomized to receive escalating doses of Compound-1 (1-100 mg), or placebo with a pre-defined dose escalation schedule. […] (FIG. 8).
The mean change from baseline in CSBMs per week for patients receiving 100 mg Compound-1 was 3.6 versus 0.8 in the placebo group (p=0.006), or a net increase of 2.8 CSBMs over placebo.

## C[N+]1(CC2CC2)CC[C@]23CC(=O)CC[C@@]2(O)[C@H]1Cc1ccc(C(N)=O)c(O)c13 (stereo partly drawn) [Compound-1]
Male Swiss-Webster mice; minimal effective PO dose of Compound-1 vs minimal effective IP dose of MNTX, FIG. 7
  duration of action compared with MNTX: longer duration of action than MNTX
Male Swiss-Webster mice; oral administration, FIG. 6
  dose relative to methylnaltrexone at which morphine's effects are blocked: 3 fold lower
Male Swiss-Webster mice; oral administration, FIG. 6, compared with methylnaltrexone
  duration of blocking morphine's effects: up to 4 hours
[1]; 30 mg dose
  change from baseline in number of average spontaneous bowel movements (SBMs) in comparison to placebo: statistically significant increase
[1]; 100 mg
  net increase of CSBMs over placebo: 2.8 CSBMs
[1]; 100 mg dose
  average number of complete spontaneous bowel movements (CSBMs) per week from baseline as compared to placebo: clinically meaningful and statistically significant increase
  change from baseline in number of average spontaneous bowel movements (SBMs) in comparison to placebo: statistically significant increase
[1]; 100 mg once-daily
  net increase of SBMs over placebo: 3.9 SBMs
[1]; 100 mg once-daily, placebo 0.7, p=0.003
  mean change from baseline in the average number of SBMs per week: 4.6 SBMs per week
[1]; 100 mg, placebo 0.8, p=0.006
  mean change from baseline in CSBMs per week: 3.6 CSBMs per week
[1]; escalating doses 1-100 mg
  opioid use: no increase in opioid use
  reversal of analgesia as measured by change in Numerical Pain Rating Scale (NPRS) scores: no reversal of analgesia
